In US20250382261A1 (The Broad Institute, Inc., priority 2021, published 2025):
Values after ≈ are worked out from the molar mass of the structure shown.

Columns and labels:
A. baumannii ATCC 17978 = assay: Systemic A. baumannii murine infection model; assay type: in vivo, mouse
Description: Mouse infection models. Animal experiments were conducted according to guidelines set by the Canadian Council on Animal Care using protocols approved by the Animal Review Ethics Board at McMaster University under Animal Use Protocol #20-12-43. Before infection, mice were relocated at random from a housing cage to treatment or control cages. No animals were excluded from analyses, and blinding was considered unnecessary. Seven- to nine-week-old female C57BL/6 mice (Charles River) were infected intraperitoneally with ˜2×10^6 CFU of A. baumannii ATCC 17978, with 5% porcine mucin (Sigma-Aldrich). Infections were allowed to establish for 2 h, and treatments were administered intraperitoneally. For the survival study, the clinical endpoint was determined using a five-point body condition score analyzing weight loss, decrease in body temperature, respiratory distress, hampered mobility and hunched posture. Experimental endpoint was defined as five days post-infection for mice not reaching clinical endpoint. For CFU/mL enumeration, animals were infected as described above and euthanized 6 h post-infection, and blood was collected into sterile 2 ml heparinized tubes (BD Scientific) serially diluted in PBS and plated onto solid LB. Plates were incubated overnight at 37° C., and colonies were quantified to determine bacterial load.
This was directly compared to the activity of P35 and P36 in this model (all administered at 10 mg/kg) in combination with novobiocin (50 mg/kg).
For this experiment the same A. baumannii infection model was used, however, endpoint was defined as 6 h post-infection, at which point blood was collected for CFU/mL enumeration (FIG. 2b).

in vivo = conditions: female, C57BL/6, mouse, in vivo, iv, 1 mg/kg
Description: Plasma samples were taken from 3 mice per time point (5, 15, 30 min; 1, 2, 4, 6 and 8 h post-dose). An aliquot of 2 μL sample was protein precipitated with 60 μL methanol, the mixture was vortex-mixed well and centrifuged at 13000 rpm for 10 min at 4° C. 2 μL supernatant was injected for LC-MS/MS analysis. The mean plasma concentration and the standard deviation from all 3 animals within each time point were calculated. PK parameters were calculated with a non-compartmental analysis. The mean plasma concentrations from all 3 mice at each time point were used in the calculations.

[1] = In vitro metabolic stability, rat; assay type: in vitro ADME; conditions: read-out: In vitro metabolic stability (t1/2, min), rat
Solubility at pH 7.4 = assay type: physicochemical; conditions: pH 7.4, aqueous buffer, thermodynamic from solid; read-out: Kinetic solubility (μM @ pH 7.4)
Description: Thermodynamic solubility. P35 in solution at pH 7.4 was incubated at ambient temperature overnight with stirring using a vial roller system. The saturation of the solution was determined using HPLC-UV. This assay was performed in duplicate by Cyprotex Ltd.

[2] = In vitro metabolic stability, human; assay type: in vitro ADME; conditions: read-out: In vitro metabolic stability (t1/2, min), human
CYP2C9 = biological target: T1, CYP2C9 (Homo sapiens, UniProt P11712); assay: P450 inhibition; assay type: in vitro ADME; conditions: read-out: P450 Inhibition CYP 2C9 (IC50)
T1 construct: Cyprotex Ltd. (contract laboratory that ran the assay)
Description: P450 inhibition. An 8-point dose-response of P35 (0, 0.1, 0.25, 1, 2.5, 10, 25 μM) was tested against the following cytochrome P450 (CYP) isoforms CYP3A4, CYP2C9, CYP2D6, CYP1A2, and CYP2C19. Reduction in metabolite formation was quantified using LC-MS/MS (with the exception of ethoxyresorufin for CYP1A2) to calculate an IC50 value. This assay was performed by Cyprotex Ltd.

LPS from E. coli EH100 = assay: BODIPY-Cadaverine LPS displacement assay; assay type: binding; conditions: BODIPY-cadaverine displacement from E. coli EH100 LPS
Description: BODIPY-Cadaverine LPS displacement assay. The BODIPY-cadaverine LPS displacement assay was performed as previously described (Wood et al. 2004. Combinatorial Chemistry & High Throughput Screening, 7: 239-49; Klobucar et al. 2021. ACS Chemical Biology, 16: 929-42). A solution of BODIPY-cadaverine (2.25 μM) and LPS from E. coli EH100 (5.25 μM) in Tris-HCl buffer (50 mM, pH 7.4) was prepared. 0.5 μL of compound and 49.5 μL of the Tris-HCl buffer with BODIPY-cadaverine and LPS solution were added to a Corning nonbinding surface black 384-well polystyrene plate. Fluorescence intensity was measured immediately with an excitation wavelength of 580 nm and an emission wavelength of 620 nm. EC50 values were calculated using a three-parameter logistic curve in GraphPad Prism 9.

A. baumannii = assay: Fold reduction of antibiotic MIC at fixed adjuvant concentration; assay type: cell-based; conditions: pentamidine or P35 at 50 μg/mL
Description: Bacterial strains and culture conditions. The following bacterial strains were used within this study; A. baumannii (ATCC 17978), K. pneumoniae (ATCC 43816), K. pneumoniae (ATCC 43816, expressing pGDP2:mcr-1), P. aeruginosa (PA01). Bacterial growth was in cation-adjusted Mueller-Hinton broth (MHB) at 37° C., and inoculum was prepared according to CLSI protocol (CLSI 2015).
Potentiation assays. Checkerboard analyses were conducted with each drug serially diluted at eight concentrations to create an 8×8 matrix. At least two biological replicates were done for each combination, and the means were used for FIC calculation. The FIC for each drug was calculated by dividing the concentration of the drug in the presence of codrug in a combination for a well showing <10% growth by the MIC for that drug alone. The FIC index (FICI) is the sum of the two FICs, with an FIC index≤0.5 deemed synergistic.

in vitro = conditions: human

T1 sequence (P11712 whole entry): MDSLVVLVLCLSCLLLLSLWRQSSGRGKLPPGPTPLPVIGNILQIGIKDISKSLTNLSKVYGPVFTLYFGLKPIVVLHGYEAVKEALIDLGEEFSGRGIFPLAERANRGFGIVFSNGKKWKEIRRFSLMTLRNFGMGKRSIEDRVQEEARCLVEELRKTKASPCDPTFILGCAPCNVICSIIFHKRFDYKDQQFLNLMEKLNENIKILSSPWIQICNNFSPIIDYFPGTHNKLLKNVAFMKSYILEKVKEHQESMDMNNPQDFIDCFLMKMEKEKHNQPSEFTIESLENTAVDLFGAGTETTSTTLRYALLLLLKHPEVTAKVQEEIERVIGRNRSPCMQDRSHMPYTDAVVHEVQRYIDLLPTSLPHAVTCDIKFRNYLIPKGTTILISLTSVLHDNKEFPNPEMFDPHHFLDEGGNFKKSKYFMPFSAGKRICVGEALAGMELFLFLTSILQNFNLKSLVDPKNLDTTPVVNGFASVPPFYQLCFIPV

Compound: N=C(N)c1ccc(OCCN(CCOc2ccc(C(=N)N)cc2)c2ccccc2)cc1 [Analog P35]
- Reduction in blood CFU/mL in combination with novobiocin (A. baumannii ATCC 17978; 10 mg/kg + 50 mg/kg novobiocin, 6 h post-infection): 3.05 log10
- Animals rescued in combination with novobiocin (A. baumannii ATCC 17978; 10 mg/kg analog + 50 mg/kg novobiocin i.p. 2 h post-infection, endpoint 5 days): 100%
- Impact on blood CFU/mL, treatment alone (A. baumannii ATCC 17978; alone, 6 h post-infection, compared to control-treated animals): no significant impact
- AUC(0-inf) (in vivo): 55.3 ng·h/mL
- AUC(0-t) (in vivo): 51.6 ng·h/mL
- C0 (in vivo): 238 ng/mL
- MRT inf (in vivo): 1.85 h
- MRT last (in vivo): 1.24 h
- Vd (in vivo): 33.4 L/kg
- clearance (in vivo): 301 mL/min/kg
- half-life (in vivo): 1.61 h
- half-life [1]: 110 min
- thermodynamic solubility (Solubility at pH 7.4): 182 µM (≈ 76.2 µg/mL)
- half-life [2]: > 145 min
- IC50 (CYP2C9): > 50 µM
- LPS Displacement (EC50, μg/mL) (LPS from E. coli EH100): 87.21 µg/mL
- Average Fold-reduction in MIC, Ampicillin (A. baumannii; MIC of ampicillin in A. baumannii): 1 fold
- Average Fold-reduction in MIC, Bacitracin (A. baumannii; MIC of bacitracin in A. baumannii): 2 fold
- Average Fold-reduction in MIC, Chloramphenicol (A. baumannii; MIC of chloramphenicol in A. baumannii): 2 fold
- Average Fold-reduction in MIC, Clarithromycin (A. baumannii; MIC of clarithromycin in A. baumannii): 384 fold
- Average Fold-reduction in MIC, Doxycycline (A. baumannii; MIC of doxycycline in A. baumannii): 4 fold
- Average Fold-reduction in MIC, Erythromycin (A. baumannii; MIC of erythromycin in A. baumannii): 32 fold
- Average Fold-reduction in MIC, Fusidic Acid (A. baumannii; MIC of fusidic acid in A. baumannii): 341.33 fold
- Average Fold-reduction in MIC, Linezolid (A. baumannii; MIC of linezolid in A. baumannii): 8 fold
- Average Fold-reduction in MIC, Meropenem (A. baumannii; MIC of meropenem in A. baumannii): 4 fold
- Average Fold-reduction in MIC, Mupirocin (A. baumannii; MIC of mupirocin in A. baumannii): 4 fold
- Average Fold-reduction in MIC, Nafcillin (A. baumannii; MIC of nafcillin in A. baumannii): 1.5 fold
- Average Fold-reduction in MIC, Nalidixic Acid (A. baumannii; MIC of nalidixic acid in A. baumannii): 4 fold
- Average Fold-reduction in MIC, Novobiocin (A. baumannii; MIC of novobiocin in A. baumannii): 512 fold
- Average Fold-reduction in MIC, Oxacillin (A. baumannii; MIC of oxacillin in A. baumannii): 1 fold
- Average Fold-reduction in MIC, Rifampicin (A. baumannii; MIC of rifampicin in A. baumannii): 384 fold
- Average Fold-reduction in MIC, Rifaximin (A. baumannii; MIC of rifaximin in A. baumannii): 256 fold
- Average Fold-reduction in MIC, Roxithromycin (A. baumannii; MIC of roxithromycin in A. baumannii): 341.33 fold
- Average Fold-reduction in MIC, Thiostrepton (A. baumannii; MIC of thiostrepton in A. baumannii): 170.67 fold
- Average Fold-reduction in MIC, Trimethoprim (A. baumannii; MIC of trimethoprim in A. baumannii): 5.33 fold
- Average Fold-reduction in MIC, Vancomycin (A. baumannii; MIC of vancomycin in A. baumannii): 4 fold
- AC50 at 72 h (in vitro; HepG2 viability / cell cycle arrest AC50): 14.5 µM
- AC50 at 72 h (in vitro; Nuclear Size AC50 (μM)): 94.5 µM
- AC50 at 72 h (in vitro; Phospholipidosis AC50 (μM)): 43.1 µM
